# Measured values from patent US20250115636A1, “PEPTIDOMIMETIC INHIBITORS OF PROTEIN N-TERMINAL […] 1, COMPOSITION, AND METHOD OF USE” (Purdue Research Foundation, priority 2022, published 2025).
# Like-named read-outs stand apart in the source and are kept apart here.
# How the values were obtained:
# NTMT1 [1] = target: T1, NTMT1 (Homo sapiens, UniProt Q9BV86); assay: NTMT1 biochemical assay (SAHH-coupled fluorescence assay)
# T1 construct: made in house
# T1 sequence (Q9BV86 1-223): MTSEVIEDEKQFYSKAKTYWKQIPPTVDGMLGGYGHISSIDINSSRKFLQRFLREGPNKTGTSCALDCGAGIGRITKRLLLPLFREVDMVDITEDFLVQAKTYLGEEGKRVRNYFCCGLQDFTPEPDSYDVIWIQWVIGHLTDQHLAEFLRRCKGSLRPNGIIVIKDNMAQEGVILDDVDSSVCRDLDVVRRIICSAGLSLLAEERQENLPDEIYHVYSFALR
# in vitro = settings: PAMPA
# Protocol: The stock solutions in 10 mM DMSO was diluted with PBS to a final concentration of 200 μM with 2% DMSO (v/v). Verapamil was added as a control. The pre-coated PAMPA plate system was warmed to room temperature, and the donor plate (bottom) was filled with 300 μL of the diluted sample solution while the acceptor plate (top) was filled with 200 μL of the buffer. […] The permeability of each compound was calculated using the formula:
# • CD (t)=compound concentration in donor well at time t. • CA (t)=compound concentration in acceptor well at time t. • VD=donor well volume • VA=acceptor well volume • A=filter area • t=incubation time
# [2] = test system: cellular α-N-terminal methylation level in HCT116 cells; assay: Cellular N-terminal methylation assay (Western blot, anti-me3-SPK); type: cell-based, human; settings: for IC50: Homo sapiens, HCT-116, HCT116 cells, Western blot, n = 2
# Protocol: (§1) FIGS. 4A-4C. Cellular N-terminal methylation assay of GD562 (1d), GD564 (1f), and GD573 (1e) in HCT116 cells. Representative Western blot results of the effects of GD562 (0-300 μM) on the cellular methylation level (n=2) (FIG. 4A). Representative Western blot results of the effects of GD564 (0-100 μM) on the cellular methylation level (n=2) (FIG. 4B). Representative Western blot results of the effects of GD573 (0-300 μM) on the cellular methylation level (n=2) (FIG. 4C). Image quantification was done using ImageJ software (NIH).
# Cellular N-methylation level. […] The membrane was then blocked for 1 hour in 5% milk TBST solution and washed with 1×TBST solution three times. […] Image quantification was done using ImageJ software (NIH).
# HCT116 cells = assay: Cytotoxicity / cell viability, alamarBlue (resazurin) assay; type: cell-based; settings: Homo sapiens, HCT-116, normal HCT116 cells
# Text: To test this hypothesis, compound 1a was selected to evaluate its effects on both wild-type and NTMT1 knockout HCT116 cells (FIG. 3B).
# me3-SET [3] = assay: Cellular N-terminal methylation assay, me3-SET; type: cell-based; settings: Homo sapiens, HCT-116, HCT116 cells
# Protocol: as §1, with “.” for “FIGS. 4A-4C. Cellular N-terminal methylation assay of GD562 (1d), GD564 (1f), and GD573 (1e) in HCT116 cells.”
# (§2) […]. Cellular N-methylation level. […] The membrane was then blocked for 1 hour in 5% milk TBST solution and washed with 1×TBST solution three times. […] Image quantification was done using ImageJ software (NIH).
# me3-RCC1 [4] = assay: Cellular N-terminal methylation assay, me3-RCC1; type: cell-based, human; settings: HCT116 cells; for IC50: Homo sapiens, HCT-116
# Protocol: as §1, with “.” for “FIGS. 4A-4C. Cellular N-terminal methylation assay of GD562 (1d), GD564 (1f), and GD573 (1e) in HCT116 cells.”
# as §2
# NTMT1 [5] = target: T1, NTMT1; settings: cited from earlier work
# [6] = test system: panel of 41 methyltransferases; settings: among a panel of 41 methyltransferases; cited from earlier work
# me3-SET [7] = settings: at 300 μM in HCT116 cells, previously reported; cited from earlier work
# me3-RCC1 [8] = settings: cited from earlier work
# [9] = recombinant NTMT1, n = 2, mean ± SD
Structure (SMILES),IC50 (NTMT1 [1]; [9]) [µM],"Papp at 5 h, 200 μM (in vitro) [×10⁻⁶ cm/s]",IC50 [2] [µM],GI50 (HCT116 cells) [µM],further results
NCCCC[C@H](NC(=O)[C@@H]1CCCN1C(=O)Cc1cccc2ccccc12)C(=O)Nc1cccc(Br)c1 [Compound 1a],0.17 ± 0.008,–,–,48 to 135,–
NCCCC[C@H](NC(=O)[C@@H]1CCCN1C(=O)Cc1cccc2ccccc12)C(=O)NCc1ccccc1 [Compound 1c],0.91 ± 0.03,0.24 ± 0.06,< 300,> 300,–
NCCCC[C@H](NC(=O)[C@@H]1CCCN1C(=O)Cc1cccc2ccccc12)C(=O)Nc1ccc(Br)cc1 [Compound 1b],0.18 ± 0.007,–,–,48 to 135,–
NCCCC[C@H](NC(=O)[C@@H]1CCCN1C(=O)Cc1cccc2ccccc12)C(=O)NCCc1ccccc1 [Compound 1d],–,0.26 ± 0.06,~50,> 300,IC50 (me3-SET [3]; read-out: Cellular IC50 on N-terminal methylation of SET): ~50 µM; IC50 (me3-SET [3]; read-out: Cellular IC50 on me3-SET): ~50 µM; Difference between enzymatic and cellular IC50 values [2]: ~50 fold; Increase in cellular inhibition activity on me3-RCC1 compared to DC541 (me3-RCC1 [4]): over 2 fold; IC50 (me3-RCC1 [4]; read-out: Cellular IC50 on N-terminal methylation of RCC1): ~50 µM; IC50 (me3-RCC1 [4]; read-out: Cellular IC50 on me3-RCC1): ~50 µM
NCCCC[C@H](NC(=O)[C@@H]1CCCN1C(=O)Cc1cccc2ccccc12)C(=O)NCCCc1ccccc1 [Compound 1e],0.65 ± 0.01,0.17 ± 0.08,~100,> 300,–
NCCCC[C@H](NC(=O)[C@@H]1CCCN1C(=O)Cc1ccc(O)cc1)C(=O)N[C@@H](CCCN=C(N)N)C(N)=O [BM30],–,–,–,–,IC50 (NTMT1 [5]; previously reported inhibitors): 0.89 ± 0.1 µM; Selectivity for NTMT1/2 [6]: over 100 fold

# Further lines, with some results ahead:
IC50 (NTMT1 [1]; [9]) [µM],"Papp at 5 h, 200 μM (in vitro) [×10⁻⁶ cm/s]",IC50 [2] [µM],Structure (SMILES),GI50 (HCT116 cells) [µM],further results
0.58 ± 0.03,0.6 ± 0.1,< 300,NCCCC[C@H](NC(=O)[C@@H]1CCCN1C(=O)Cc1cccc2ccccc12)C(=O)NCc1cccc(Br)c1 [Compound 1g],–,–
0.94 ± 0.03,0.47,~100,NCCCC[C@H](NC(=O)[C@@H]1CCCN1C(=O)Cc1cccc2ccccc12)C(=O)NCC1CCCCC1 [Compound 1f],> 300,–
–,0.9,–,NCCCC[C@H](NC(=O)[C@@H]1CCCN1C(=O)Cc1cccc2ccccc12)C(=O)NCCc1ccc(-c2ccccc2)cc1 [Compound 1j],–,IC50 (NTMT1 [1]): 2.5 ± 0.09 µM
0.82 ± 0.07,0.9 ± 0.2,< 300,NCCCC[C@H](NC(=O)[C@@H]1CCCN1C(=O)Cc1cccc2ccccc12)C(=O)NCc1ccc(Br)cc1 [Compound 1h],–,–
0.69 ± 0.08,1.3,–,NCCCC[C@H](NC(=O)[C@@H]1CCCN1C(=O)Cc1cccc2ccccc12)C(=O)NCCc1cccc(-c2ccccc2)c1 [Compound 1k],48 to 135,Permeability (in vitro): ±0.4 10^−6 cm/s
0.34 ± 0.03,–,–,NCCCC[C@H](NC(=O)[C@@H]1CCCN1C(=O)Cc1cccc2ccccc12)C(=O)Nc1ccccc1C(N)=O [DC541],–,"Decrease in inhibitory activity on recombinant NTMT1 compared to DC113 (NTMT1 [5]): ~3 fold; Inhibition of me3-SET level (me3-SET [7]): did not show any inhibition; IC50/IC50 (DC541) (NTMT1 [1]; ratio of NTMT1 IC50 to that of DC541): 1.0; IC50 (me3-RCC1 [8]; HCT116, previously reported, read-out: Cellular IC50 on the me3-RCC1 level): ~100 µM; Enhancement of cellular inhibition compared to DC113 (me3-RCC1 [8]): about 10 fold"
